Assay results reported in ChEMBL document CHEMBL1148596, “Discovery of nonpeptidic small-molecule AP-1 inhibitors: lead hopping based on a three-dimensional pharmacophore model” (J Med Chem, 2006).

Key:
Transcription factor AP1 [1] = target: T1, Transcription factor AP1 (Homo sapiens, UniProt P05412+P01100); test: (§1) Inhibitory activity on AP1 using ELISA based AP1 DNA binding; format: protein-complex assay
Transcription factor AP1 [2] = target: T1, Transcription factor AP1; test: (§2) Inhibition of the expression of AP1-luciferase by TPA-stimulated NIH3T3 cells; format: cell-based; settings: nih3t3
Transcription factor AP1 [3] = target: T2, Transcription factor AP1 (Homo sapiens, UniProt P01100+P05412); test: as §1; format: protein-complex assay
T2 sequence (P05412 whole entry): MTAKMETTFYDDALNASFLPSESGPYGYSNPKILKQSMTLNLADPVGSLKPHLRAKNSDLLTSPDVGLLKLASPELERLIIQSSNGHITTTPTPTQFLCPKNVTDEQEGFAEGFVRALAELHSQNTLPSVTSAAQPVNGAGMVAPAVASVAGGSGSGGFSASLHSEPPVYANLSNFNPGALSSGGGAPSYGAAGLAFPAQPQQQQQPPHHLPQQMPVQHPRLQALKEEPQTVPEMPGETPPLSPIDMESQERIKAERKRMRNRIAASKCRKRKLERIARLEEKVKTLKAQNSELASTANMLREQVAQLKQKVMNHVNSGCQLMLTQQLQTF
T2 sequence (P01100 whole entry): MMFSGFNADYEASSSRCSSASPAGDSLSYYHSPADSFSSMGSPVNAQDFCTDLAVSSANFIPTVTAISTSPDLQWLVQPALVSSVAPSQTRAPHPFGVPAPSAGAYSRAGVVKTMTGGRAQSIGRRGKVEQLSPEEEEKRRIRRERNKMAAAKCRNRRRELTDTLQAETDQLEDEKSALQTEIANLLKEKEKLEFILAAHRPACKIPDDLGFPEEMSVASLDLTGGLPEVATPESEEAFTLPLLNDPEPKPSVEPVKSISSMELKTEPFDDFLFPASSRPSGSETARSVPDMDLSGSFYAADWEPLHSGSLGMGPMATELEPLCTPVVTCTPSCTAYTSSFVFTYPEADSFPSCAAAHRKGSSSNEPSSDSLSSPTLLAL

Transcription factor AP1 [4] = target: T2, Transcription factor AP1; test: as §2; format: cell-based
Transcription factor AP1 [5] = target: T1, Transcription factor AP1; test: Inhibitory activity on AP1 DNA-binding at 500 uM; format: protein-complex assay
Transcription factor AP1 [6] = target: T1, Transcription factor AP1; test: Inhibitory activity on AP1 DNA-binding at 1 mM; format: protein-complex assay

T1 sequence (P05412 whole entry): as the sequence (P05412 whole entry) above
T1 sequence (P01100 whole entry): as the sequence (P01100 whole entry) above

Row | IC50 (Transcription factor AP1 [1]) | IC50 (Transcription factor AP1 [2]) | IC50 (Transcription factor AP1 [3]) | IC50 (Transcription factor AP1 [4]) | inhibition (Transcription factor AP1 [5]) | inhibition (Transcription factor AP1 [6]) | SMILES
1 | 650 µM | 11.8 µM |  |  |  |  | CC(C)CCC=C1CCC2(CC1)SC[C@@H](C(=O)O)N2C(=O)CCC(C)C (stereo partly drawn)
2 |  |  | 600 µM | 5.8 µM |  |  | CC(C)COc1cccc(C(=O)c2ccc(OCC(C)C)c(CCC(=O)O)c2)c1
3 |  |  |  |  | 3% |  | CC(C)COc1ccc(C(=O)c2ccc(OCC(C)C)cc2)cc1
4 |  |  | > 2000 µM |  | 10% | 14% | CC(C)COc1ccc(C(=O)c2cccc(CCC(=O)O)c2)cc1
5 |  |  | 420 µM |  | 51% | 97% | CC(C)COc1ccc(C(=O)c2ccc(OCc3ccccc3)c(CCC(=O)O)c2)cc1
6 |  |  | > 2000 µM |  | 7% | 9% | CC(C)COc1ccc(C(=O)c2ccccc2)cc1CCC(=O)O
7 | 460 µM | 13.3 µM |  |  |  |  | CC(C)CC=C1CCC2(CC1)SC[C@@H](C(=O)O)N2C(=O)CCCC(C)C (stereo partly drawn)
8 |  |  | 910 µM |  | 26% | 55% | CCCOc1ccc(C(=O)c2ccc(OCC(C)C)cc2)cc1CCC(=O)O
9 |  |  | 610 µM | 5 µM | 28% | 91% | CC(C)COc1ccc(C(=O)c2ccc(OCC(C)C)c(CCC(=O)O)c2)cc1
10 |  |  | 930 µM |  | 25% | 42% | CCCOc1ccc(C(=O)c2ccc(OCC(C)C)c(CCC(=O)O)c2)cc1
11 |  |  |  |  | 5% |  | CC(C)COc1ccc(C(=O)c2ccc(OCC(C)C)c(CCC(N)=O)c2)cc1
12 |  |  |  |  | 45% |  | CC(C)COc1ccc(C(=O)c2ccc(OCc3ccccc3)cc2)cc1CCC(=O)O
